Measured values reported in ChEMBL document CHEMBL1131988, “Synthesis, SAR and in vivo activity of novel thienopyridine sulfonamide pyrrolidinones as factor Xa inhibitors” (Bioorg Med Chem Lett, 1999).

Key:
Coagulation factor X [1] = target: T1, Coagulation factor X (Homo sapiens, UniProt P00742); assay: Binding affinity against serine protease factor Xa (fXa)
Prothrombin = Prothrombin (Homo sapiens, UniProt P00734); assay: Binding affinity against thrombin
Serine protease 1 = Serine protease 1 (Homo sapiens, UniProt P07477); assay: Binding affinity against trypsin
Coagulation factor X [2] = target: T1, Coagulation factor X; assay: Binding affinity against serine protease Coagulation factor X
[3] = target: Vitamin K-dependent protein C (Homo sapiens, UniProt P04070); assay: Binding affinity against activated protein C (APC)
Plasminogen = Plasminogen (Homo sapiens, UniProt P00747); assay: Binding affinity against plasmin
[4] = target: Tissue-type plasminogen activator (Homo sapiens, UniProt P00750); assay: Binding affinity against tissue plasminogen activator (t-Pa)
[5] = target: Coagulation factor X (Rattus norvegicus) (UniProt Q63207); assay: Inhibitory activity against factor Xa in rat plasma
Chain of Coagulation factor X (Rattus norvegicus) (Q63207 whole entry, looked up): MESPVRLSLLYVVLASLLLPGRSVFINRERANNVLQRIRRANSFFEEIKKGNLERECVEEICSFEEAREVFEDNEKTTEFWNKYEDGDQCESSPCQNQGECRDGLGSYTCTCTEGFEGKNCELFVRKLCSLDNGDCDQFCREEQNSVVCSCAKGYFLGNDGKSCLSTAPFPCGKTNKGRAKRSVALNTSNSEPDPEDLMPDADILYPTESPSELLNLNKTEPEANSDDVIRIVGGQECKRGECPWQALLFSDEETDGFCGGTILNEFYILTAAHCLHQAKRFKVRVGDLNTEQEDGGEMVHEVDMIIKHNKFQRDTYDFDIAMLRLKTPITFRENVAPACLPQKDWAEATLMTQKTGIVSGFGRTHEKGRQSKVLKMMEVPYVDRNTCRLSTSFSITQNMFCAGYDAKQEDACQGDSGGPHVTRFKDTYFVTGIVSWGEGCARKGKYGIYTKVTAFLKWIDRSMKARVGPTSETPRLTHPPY

Chain of Serine protease 1 (P07477 whole entry): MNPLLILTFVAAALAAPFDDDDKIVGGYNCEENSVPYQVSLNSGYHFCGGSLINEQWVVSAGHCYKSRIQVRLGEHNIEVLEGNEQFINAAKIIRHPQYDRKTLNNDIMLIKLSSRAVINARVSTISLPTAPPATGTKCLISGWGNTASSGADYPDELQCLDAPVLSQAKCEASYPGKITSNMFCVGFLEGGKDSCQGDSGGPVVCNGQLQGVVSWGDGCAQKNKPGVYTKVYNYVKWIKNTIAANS
T1 sequence (P00742 41-179 limits assumed): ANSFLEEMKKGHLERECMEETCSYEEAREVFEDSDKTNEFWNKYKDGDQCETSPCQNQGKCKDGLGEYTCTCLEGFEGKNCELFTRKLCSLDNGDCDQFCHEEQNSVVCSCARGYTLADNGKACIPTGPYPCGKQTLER
T1 sequence (P00742 235-488 limits assumed): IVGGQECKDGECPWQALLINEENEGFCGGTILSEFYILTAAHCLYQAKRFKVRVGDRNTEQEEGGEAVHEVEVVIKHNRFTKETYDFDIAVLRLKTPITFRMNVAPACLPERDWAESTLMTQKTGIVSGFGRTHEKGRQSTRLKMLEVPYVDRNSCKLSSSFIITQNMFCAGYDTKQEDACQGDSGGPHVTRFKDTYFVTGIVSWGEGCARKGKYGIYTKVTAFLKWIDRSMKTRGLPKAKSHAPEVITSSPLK
Chain of Plasminogen (P00747 97-580 limits assumed): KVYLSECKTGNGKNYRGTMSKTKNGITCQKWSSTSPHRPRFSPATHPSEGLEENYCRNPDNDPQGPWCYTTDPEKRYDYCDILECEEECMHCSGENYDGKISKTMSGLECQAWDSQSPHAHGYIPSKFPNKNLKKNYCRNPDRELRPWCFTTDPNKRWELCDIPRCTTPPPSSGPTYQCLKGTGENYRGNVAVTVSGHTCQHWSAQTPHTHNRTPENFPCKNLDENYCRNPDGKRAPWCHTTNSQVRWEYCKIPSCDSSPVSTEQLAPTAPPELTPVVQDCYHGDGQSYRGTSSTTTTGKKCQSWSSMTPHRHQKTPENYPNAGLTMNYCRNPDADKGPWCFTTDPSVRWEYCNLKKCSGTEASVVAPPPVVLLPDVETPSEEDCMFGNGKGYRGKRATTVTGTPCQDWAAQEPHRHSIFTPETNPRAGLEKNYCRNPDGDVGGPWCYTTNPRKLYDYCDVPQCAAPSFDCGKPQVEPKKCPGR
Chain of Plasminogen (P00747 581-810 limits assumed): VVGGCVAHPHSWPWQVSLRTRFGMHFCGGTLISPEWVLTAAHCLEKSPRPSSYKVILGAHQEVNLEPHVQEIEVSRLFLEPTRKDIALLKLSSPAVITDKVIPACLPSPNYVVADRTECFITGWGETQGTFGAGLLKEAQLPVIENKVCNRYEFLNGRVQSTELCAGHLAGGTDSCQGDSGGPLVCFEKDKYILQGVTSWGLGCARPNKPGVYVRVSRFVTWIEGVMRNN
Chain of Vitamin K-dependent protein C (P04070 43-197 limits assumed): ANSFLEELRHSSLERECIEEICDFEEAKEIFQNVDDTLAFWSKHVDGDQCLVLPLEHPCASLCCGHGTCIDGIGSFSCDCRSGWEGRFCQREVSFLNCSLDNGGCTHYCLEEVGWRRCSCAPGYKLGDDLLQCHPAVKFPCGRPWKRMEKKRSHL
Chain of Vitamin K-dependent protein C (P04070 212-461 limits assumed): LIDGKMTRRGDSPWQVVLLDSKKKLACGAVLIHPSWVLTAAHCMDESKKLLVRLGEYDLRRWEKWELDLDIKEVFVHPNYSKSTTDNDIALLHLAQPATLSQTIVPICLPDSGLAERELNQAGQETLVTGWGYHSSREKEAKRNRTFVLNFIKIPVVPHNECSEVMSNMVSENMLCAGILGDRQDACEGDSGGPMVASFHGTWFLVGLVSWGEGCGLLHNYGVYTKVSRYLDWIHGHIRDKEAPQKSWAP
Chain of Tissue-type plasminogen activator (P00750 whole entry): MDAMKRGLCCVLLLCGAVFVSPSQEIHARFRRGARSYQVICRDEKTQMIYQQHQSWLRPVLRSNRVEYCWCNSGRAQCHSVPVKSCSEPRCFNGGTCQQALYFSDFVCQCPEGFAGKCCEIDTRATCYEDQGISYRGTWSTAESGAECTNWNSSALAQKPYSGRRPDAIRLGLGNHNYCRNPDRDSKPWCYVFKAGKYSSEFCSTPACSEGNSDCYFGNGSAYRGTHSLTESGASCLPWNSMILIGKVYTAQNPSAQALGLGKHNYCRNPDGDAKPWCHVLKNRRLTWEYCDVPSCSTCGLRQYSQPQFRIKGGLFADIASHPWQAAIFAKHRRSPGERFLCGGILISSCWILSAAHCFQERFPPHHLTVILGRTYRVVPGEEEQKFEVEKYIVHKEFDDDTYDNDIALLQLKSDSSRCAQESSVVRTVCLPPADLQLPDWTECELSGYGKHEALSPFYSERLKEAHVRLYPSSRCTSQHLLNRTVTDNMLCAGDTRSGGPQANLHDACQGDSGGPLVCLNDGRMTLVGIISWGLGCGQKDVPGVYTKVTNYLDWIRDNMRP

| SMILES | Ki (Coagulation factor X [1]) [nM] | Ki (Prothrombin) [nM] | Ki (Serine protease 1) [nM] | Ki (Coagulation factor X [2]) [nM] | Ki [3] [nM] | Ki (Plasminogen) [nM] | Ki [4] [nM] | IC50 [5] [nM] |
| --- | --- | --- | --- | --- | --- | --- | --- | --- |
| N=C(N)c1cccc(CN2CC[C@H](NS(=O)(=O)c3cc4c(Cl)nccc4s3)C2=O)c1 | 39 | > 4000 | > 2900 |  |  |  |  |  |
| CCOc1ccc2cc(S(=O)(=O)N[C@H]3CCN(Cc4cccc(C(=N)N)c4)C3=O)ccc2n1 | > 1200 | > 4000 | > 2900 |  |  |  |  |  |
| N=C(N)c1cccc(CN2CC[C@H](NS(=O)(=O)c3ccc4ccncc4c3)C2=O)c1 |  | > 4000 | > 2900 | 510 |  |  |  |  |
| N=C(N)c1cccc(CN2CC[C@H](NS(=O)(=O)c3cc4cccnc4s3)C2=O)c1 | 88 | > 4000 | 2900 |  |  |  |  |  |
| N=C(N)c1ccc(O)c(CN2CC[C@H](NS(=O)(=O)c3cc4c(Cl)nccc4s3)C2=O)c1 | 2 | 4000 | > 2900 |  | 8000 | 4500 | 8700 |  |
| N=C(N)c1ccc(O)c(CN2CC[C@H](NS(=O)(=O)c3cc4cnccc4s3)C2=O)c1 | 3 | 2600 | > 2900 |  | > 18000 | > 7300 | 8700 |  |
| N=C(N)c1cccc(CN2CC[C@H](NS(=O)(=O)c3ccc4cc(Cl)c(Cl)cc4c3)C2=O)c1 |  |  |  | ~75 |  |  |  |  |
| N=C(N)c1cccc(CN2CC[C@H](NS(=O)(=O)c3cc4ccc(Cl)nc4s3)C2=O)c1 |  | > 4000 | > 2900 | 120 |  |  |  |  |
| N=C(N)c1cccc(CN2CC[C@H](NS(=O)(=O)c3ccc4nc(Cl)ccc4c3)C2=O)c1 | 110 | > 4000 | > 2900 |  |  |  |  |  |
| N=C(N)c1cccc(CN2CC[C@H](NS(=O)(=O)c3cc4ncccc4s3)C2=O)c1 | 26 | > 4000 | > 2900 |  | 12000 | > 7300 | > 8700 |  |
| N=C(N)c1cccc(CN2CC[C@H](NS(=O)(=O)c3cc4nc(Cl)ccc4s3)C2=O)c1 | 31 | 3100 | > 2900 |  | > 18000 | 5800 | > 8700 |  |
| N=C(N)c1cccc(CN2CC[C@H](NS(=O)(=O)c3ccc4cnccc4c3)C2=O)c1 |  | > 4000 | > 2900 | 380 |  |  |  |  |
| N=C(N)c1cccc(CN2CC[C@H](NS(=O)(=O)c3ccc4ncccc4c3)C2=O)c1 | 200 | > 4000 | > 2900 |  |  |  |  |  |
| N=C(N)c1ccc(O)c(CN2CC[C@H](NS(=O)(=O)c3cc4ccncc4s3)C2=O)c1 |  | 2000 | > 2900 | 2 | 18000 | 6200 | > 8700 | 11 |
| N=C(N)c1cccc(CN2CC[C@H](NS(=O)(=O)c3ccc4ccc(N)nc4c3)C2=O)c1 |  | > 4000 | > 2900 | 240 |  |  |  |  |
| N=C(N)c1ccc(O)c(CN2CC[C@H](NS(=O)(=O)c3cc4ccnc(Cl)c4s3)C2=O)c1 | 5 | 2600 | > 2900 |  | 5500 | 7300 | 7500 |  |
| N=C(N)c1cccc(CN2CC[C@H](NS(=O)(=O)c3ccc4ccc(Cl)nc4c3)C2=O)c1 |  | > 4000 | > 2900 | 720 |  |  |  |  |
| N=C(N)c1cccc(CN2CC[C@H](NS(=O)(=O)c3ccc4ccnc(N)c4c3)C2=O)c1 |  | > 4000 | > 2900 | 490 |  |  |  |  |
| N=C(N)c1cccc(CN2CC[C@H](NS(=O)(=O)c3ccc4cccnc4c3)C2=O)c1 |  | > 4000 | > 2900 | 420 |  |  |  |  |
| COc1ccc2ccc(S(=O)(=O)N[C@H]3CCN(Cc4cc(C(=N)N)ccc4O)C3=O)cc2c1 |  |  | 305 |  | 1970 | 2350 | 1070 |  |

The next lines start with the values.

| Ki (Coagulation factor X [1]) [nM] | Ki (Prothrombin) [nM] | Ki (Serine protease 1) [nM] | Ki (Coagulation factor X [2]) [nM] | Ki [3] [nM] | Ki (Plasminogen) [nM] | Ki [4] [nM] | IC50 [5] [nM] | SMILES |
| --- | --- | --- | --- | --- | --- | --- | --- | --- |
| 0.7 | 4000 | 1000 |  | 5200 | 2300 | 360 |  | N=C(N)c1ccc(O)c(CN2CC[C@H](NS(=O)(=O)c3cc4ncccc4s3)C2=O)c1 |
|  |  |  | 36 |  |  |  |  | Cc1c(S(=O)(=O)N[C@H]2CCN(Cc3cccc(C(=N)N)c3)C2=O)sc2ccc(Cl)cc12 |
|  | > 4000 | > 2900 | 90 |  |  |  |  | N=C(N)c1cccc(CN2CC[C@H](NS(=O)(=O)c3ccc4c(N)nccc4c3)C2=O)c1 |
| 1.5 | 920 | 1600 |  | 11000 | 3600 | 2700 |  | N=C(N)c1ccc(O)c(CN2CC[C@H](NS(=O)(=O)c3cc4nc(Cl)ccc4s3)C2=O)c1 |
| 3 | 1100 | 1800 |  | 4200 | 1500 | > 8700 |  | N=C(N)c1ccc(N)c(CN2CC[C@H](NS(=O)(=O)c3cc4nc(Cl)ccc4s3)C2=O)c1 |
| 160 | > 4000 | > 2900 |  |  |  |  |  | N=C(N)c1cccc(CN2CC[C@H](NS(=O)(=O)c3ccc4nc(N)ccc4c3)C2=O)c1 |
|  | > 4000 | > 2900 | 480 |  |  |  |  | COc1ccc2ccc(S(=O)(=O)N[C@H]3CCN(Cc4cccc(C(=N)N)c4)C3=O)cc2n1 |
| 5 | 210 | 860 |  | 9500 | > 7300 | > 8700 |  | COc1ccc2sc(S(=O)(=O)N[C@H]3CCN(Cc4cc(C(=N)N)ccc4N)C3=O)cc2n1 |
